Results from PubChem BioAssay (NCI).
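All cell lines were grown in 96-well plates and treated with compound for 48 hours. The concentration for full growth arrest is given as TGI.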

Assays:
Test in all cases: inhibition of tumour cell growth, NCI panel, 48 h
[1] = test system: HCT-15 colon
[2] = test system: HCC-2998 colon
[3] = test system: NCI/ADR-RES ovarian
[4] = test system: BT-549 breast
[5] = test system: MCF7 breast
[6] = test system: PC-3 prostate
[7] = test system: SNB-19 CNS
[8] = test system: RXF 393 renal
[9] = test system: HL-60(TB) leukemia
[10] = test system: T-47D breast
[11] = test system: CAKI-1 renal
[12] = test system: SF-539 CNS

Row | Compound | TGI [1] [µM] | TGI [2] [µM] | TGI [3] [µM] | TGI [4] [µM] | TGI [5] [µM] | TGI [6] [µM] | TGI [7] [µM] | TGI [8] [µM] | TGI [9] [µM] | TGI [10] [µM] | TGI [11] [µM] | TGI [12] [µM]
1 | CCCn1cnc2c(SCc3ccc(Cl)cc3)nc(N)nc21 | > 100 | 52.5 | 73.2 | > 100 | > 100 | 57.8 | > 100 | > 100 | 48.7 | > 100 | 82 | –
2 | N/C(=N\S(=O)(=O)c1ccc(-c2ncccc2C(F)(F)F)s1)Nc1ccc(Cl)cc1 | 32.2 | – | 41.1 | 29 | 30 | 25.8 | 34.4 | 41.5 | 46.4 | 48.3 | – | > 100
3 | C=CC1(CC[C@]2(c3ccc(OC)c(OC)c3)C=[N+]([O-])O[C@H](O[C@@H]3CCCC[C@H]3C(C)(C)c3ccccc3)C2)OCC(C)(C)CO1 | > 48.5 | 31.3 | 31 | 98.6 | > 42.4 | 28.3 | > 54.1 | > 48.4 | 4.81 | > 46.7 | > 28 | 31.2
4 | NCCCNCCCCN1CCOC1=O | > 100 | > 100 | > 100 | > 100 | > 100 | > 100 | > 100 | – | > 100 | > 100 | > 100 | > 100
5 | COc1cccc(CC(=O)N2CCN(CCCc3ccccc3)CC2)c1 | > 100 | > 100 | 94.3 | > 100 | > 100 | > 100 | > 100 | – | > 100 | 89.9 | > 100 | > 100
6 | Cc1ccc(C(=O)NCc2ccccc2)cc1N=NN(C)C | > 100 | > 100 | > 100 | > 100 | > 100 | > 100 | > 100 | – | > 100 | > 100 | > 100 | > 100
7 | CN1CCc2c(sc3[nH]c(=S)[nH]c(=S)c23)C1 | > 100 | – | > 100 | > 100 | > 100 | > 100 | > 100 | > 100 | > 100 | > 100 | > 100 | > 100
8 | O=C1C=C(Nc2ccc(S(=O)(=O)Nc3nccs3)cc2)c2ccccc2C1=O | 79.4 | 47.3 | 95.3 | 40.8 | 36.1 | > 100 | 86.3 | > 100 | 59.8 | > 100 | 82.9 | 41.2
9 | COc1ccc(C2c3cc4c(cc3OC(N3CCOCC3)C2C)OCO4)cc1 (centres undefined) | > 100 | 67 | > 91.2 | > 100 | > 71.5 | > 100 | > 96.7 | 63.3 | 91.2 | 61.6 | 55.1 | 68.6
10 | CCCCCCCCCCCC(=O)OC[C@@H](C[As](=O)(O)O)OC(=O)CCCCCCCCCCC | 24.1 | 20.1 | 36.6 | 9.91 | 9.24 | 8.14 | 10.8 | 6.99 | > 30 | 37.7 | 23.8 | 27.8
11 | COc1ccc(CNc2nc(NC3CCCCC3)nc(NC3CCCCC3)n2)cc1 | 5.5 | – | > 100 | > 100 | 18.8 | > 100 | > 100 | 7.94 | > 100 | 44 | > 100 | > 100
12 | COc1cc2nc(-c3cccs3)nc(Cl)c2cc1OC | > 100 | – | > 100 | > 100 | 76 | > 100 | > 100 | – | > 100 | > 100 | > 100 | > 100
13 | C/C(=N\NC(=S)N1CCCC1)c1nc2ncccc2[nH]1 | > 100 | > 100 | > 100 | 13 | 13.4 | > 100 | 17.1 | – | > 100 | > 100 | 37.1 | 0.523
14 | CCOP(=O)(OCC)/C(C#N)=C/c1ccc(-c2cc(C(F)(F)F)cc(C(F)(F)F)c2)o1 | 20.7 | 22.2 | 23.6 | 44.9 | 20 | 24 | 32 | – | 14.3 | 40 | – | 35.3
15 | CCOC(=O)C(Cc1ccc(O)cc1)Nc1nc(=O)c2c(=O)oc(Cl)cc2o1 (centres undefined) | 37.3 | 17.6 | > 69.7 | 14.1 | 17.6 | 21.4 | 27.3 | 16 | 13.5 | 25.7 | 16.6 | 21.9
16 | N#Cc1cc2c(cc1Cl)Sc1nnc(Nc3ccccc3)n1S2(=O)=O | 5.61 | 3 | 3.43 | 8.12 | > 40.4 | 3.89 | 6.66 | 4.48 | 13.6 | 13.3 | 3.34 | 4.41
17 | O=c1cc(NNc2cccc(Cl)c2)[nH]c(=O)[nH]1 | 31.4 | > 100 | > 100 | > 100 | 17.3 | > 100 | > 100 | > 100 | 43.9 | > 100 | 36.9 | > 100
18 | CN1CC=C(c2c(N)nc(N)[nH]c2=O)CC1 | > 100 | – | > 100 | > 100 | > 100 | > 100 | > 100 | > 100 | > 100 | > 100 | > 100 | > 100
19 | O=C1C(Br)=CC2(C=C1Br)CCNC1=C2C(=O)c2ncccc2C1=O | 2.64 | 4.23 | 6.17 | 2.73 | 2.78 | 8.59 | 2.77 | 2.65 | 8.26 | 4.48 | 3.14 | 0.841
